The target of one data set is GSK 3α (Homo sapiens (Human), UniProt P49840). Put plainly: GSK 3α enzyme inhibition (Z-LYTE FRET, Method 1 / Method 2). The format is biochemical. Conditions: read-out: IC50 Values for Enzyme Inhibition GSK3α. The method, then: The enzyme inhibitory activities of compounds disclosed herein are determined by FRET using synthetic peptides labelled with both donor and acceptor fluorophores (Z-LYTE, Invitrogen Ltd., Paisley, UK).
The following two assay variants can be used for determination of GSK 3α inhibition.
The inhibitory activities of compounds of the invention against the GSK 3α enzyme isoform (Invitrogen), are evaluated by determining the level of activation/phosphorylation of the target peptide. The GSK3-α protein (500 ng/mL, 2.5 μL) is mixed with the test compound (2.5 μL at either 4 μg/mL, 0.4 μg/mL, 0.04 μg/mL, or 0.004 μg/mL) for 2 hr at RT. The FRET peptide (8 μM, 2.5 μL), which is a phosphorylation target for GSK3α, and ATP (40 μM, 2.5 μL) are then added to the enzyme/compound mixture and the resulting mixture incubated for 1 hr. Development reagent (protease, 5 μL) is added for 1 hr prior to detection in a fluorescence microplate reader (Varioskan® Flash, ThermoFisher Scientific).
In all cases, the site-specific protease cleaves non-phosphorylated peptide only and eliminates the FRET signal. Phosphorylation levels of each reaction are calculated using the ratio of coumarin emission (donor) over fluorescein emission (acceptor), for which high ratios indicate high phosphorylation and low ratios indicate low phosphorylation levels. […]

Data set [1] in a line: Hydrolytic stability study. It counts as physicochemical. The conditions noted are these: DMSO and water (3:1), 1 mg/mL, 60° C. How it is done: Chemical stability of compounds of the invention was assessed in a mixture of DMSO and water (3:1) at a test compound concentration of 1 mg/mL
Sample Preparation • A 1.0 mg sample of test compound was dissolved in 750 μL of DMSO. Water (250 μL) was added slowly, ensuring no precipitation occurred.
Recording Stability • A 50 μL aliquot of the test solution was removed and analysed in duplicate by 5 μL HPLC injections. The peak area for the test compound was recorded following manual integration of the corresponding UV trace. • The test solution was heated to 60° C., with stirring, and 50 μL aliquots removed for HPLC analysis at 5 and 24 h timepoints.

GSK 3α, sequence (P49840 whole entry): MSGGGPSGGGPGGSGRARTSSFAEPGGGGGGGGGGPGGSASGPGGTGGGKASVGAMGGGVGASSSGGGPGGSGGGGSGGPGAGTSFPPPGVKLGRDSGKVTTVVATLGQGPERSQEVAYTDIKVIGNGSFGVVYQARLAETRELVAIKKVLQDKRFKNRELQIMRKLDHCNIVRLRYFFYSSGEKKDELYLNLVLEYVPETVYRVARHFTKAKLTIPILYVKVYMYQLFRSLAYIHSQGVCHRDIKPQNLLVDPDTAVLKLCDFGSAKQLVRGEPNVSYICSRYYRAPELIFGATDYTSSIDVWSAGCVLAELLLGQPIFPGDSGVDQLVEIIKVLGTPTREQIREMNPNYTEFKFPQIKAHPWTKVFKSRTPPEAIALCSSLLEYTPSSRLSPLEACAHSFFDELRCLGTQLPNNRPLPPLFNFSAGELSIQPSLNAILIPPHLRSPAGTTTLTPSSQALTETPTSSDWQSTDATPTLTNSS

A word on the IC50: it is the concentration at which inhibition is half-maximal. Regarding `COc1cc(Nc2cc(Oc3ccc(NC(=O)Nc4cc(C(C)(C)C)cc(NS(C)(=O)=O)c4OC)c4ccccc34)ccn2)cc(C(=O)NCCN2CCNCC2)c1` [Example 85(q)], at GSK 3α, the half-inhibitory concentration (IC50) is 249 nM. Take `C#Cc1cc(Nc2nccc(Oc3ccc(NC(=O)Nc4cc(C(C)C)nn4-c4ccc(C)cc4)c4ccccc34)n2)cc(C(=O)NCCN2CCOCC2)c1` [Reference Compound B, 3-ethynyl-5-((4-((4-(3-(3-isopropyl-1-(p-tolyl)-1H-pyrazol-5-yl)ureido)naphthalen-1-yl)oxy)pyrimidin-2-yl)amino)-N-(2-morpholinoethyl)benzamide]: in data set [1], the decomposition entry is “underwent substantial decomposition”.

These data come from US9790174B2, “Kinase inhibitors” (Respivert Limited, priority 2013, dated 2017).
